Results on 33 compounds are retold here after BindingDB's records for aid1799748 (Csar, 2012).

For the assay, the target named is Urokinase-type plasminogen activator (Homo sapiens, UniProt P00749). The assay can be described thus: Abbott uPA__Urokinase Human - Ki(uM). To be noted: pH 7.4; 25 °C.

As to `N=C(N)c1ccc2cc(/C=C/CCc3cccnc3)cc(Br)c2c1` [uPa_32], the Ki (as a rule, a dissociation constant, usually derived from enzyme kinetics or from competition with a known ligand) is 3080 nM. The value for `CC(C)CN(CC(C)C)C(=O)c1ccc2ccc(N)nc2c1` [uPa_34] was > 100000 nM; that for `CN1CCc2ccc(C3CC3c3ccc4cc(C(=N)N)ccc4c3)cc2C1C1CCC1` (stereo not drawn) [uPa_41] was 42 nM. Compound `COc1cc2ccc(C(=N)N)cc2c(OC)c1OC` [uPa_2] gave a Ki of 8030 nM. The value for `CS(=O)(=O)n1cc(-c2cc(C(=O)Nc3ccccc3)cc3ccc(C(=N)N)cc23)cn1` [uPa_20] was 769 nM. The figure for `N#CC(CCOc1cccc2ccc(N)nc12)(c1ccccc1)c1ccccc1` [uPa_16] is > 40000 nM; for `Nc1cc2ccccc2cn1` it is > 30000 nM. The figure for `Nc1cnc2ccccc2n1` [uPa_1] is > 50000 nM; for `COC(=O)Nc1ccc2nc(N)ccc2c1` [uPa_24] it is > 50000 nM. As for `C=CCNC(=O)Nc1cccc2ccc(N)nc12` [uPa_30], the Ki is > 10000 nM. The value for `N=C(N)c1ccc2cc(C(=O)Nc3ccccc3)cc(-c3ncccn3)c2c1` [uPa_21] was 7850 nM; that for `COC(=O)Nc1cc(C(=O)Nc2ccc(CN)cc2)cc2ccc(C(=N)N)cc12` [uPa_17] was 0.9 nM. The value for `COc1ccc2ccc(C(=N)N)cc2c1-c1cnn(C(C)C)c1` [uPa_11] was 4500 nM; that for `CN1CCc2ccc(C3CC3c3ccc4cc(C(=N)N)ccc4c3)cc2C1c1cccnc1` (stereo not drawn) [uPa_44] was 1250 nM; that for `N=C(N)c1ccc2cc(C(=O)Nc3ccc4c(c3)C(C3CCCCC3)=NCC4)ccc2c1` [uPa_31] was 66 nM. The value for `C#CCN(C)C(=O)c1ccc2ccc(N)nc2c1` [uPa_33] was > 100000 nM. Compound `N=C(N)NC(=O)c1nc(Cl)c(NCc2cc(Cl)cc(Cl)c2)nc1N` [uPa_22] gave a Ki of 3570 nM. The figure for `CN(CC#N)C(=O)c1ccc2ccc(N)nc2c1` [uPa_35] is > 100000 nM; for `CCOc1cc(OCC)c(OCC)cc1/C=C/c1cc(Br)c2cc(C(=N)N)ccc2c1` [uPa_38] it is 777 nM. The value for `N=C(N)c1ccc2cc(C(=O)Nc3ccc4c(c3)C(c3ccccc3)=NCC4)ccc2c1` [uPa_29] was 290 nM; that for `COc1cc(NC(=O)c2ccc3cc(C(=N)N)ccc3c2)cc(OC(C)C)c1` [uPa_28] was 33 nM. The value for `N=C(N)c1ccc2cc(NS(=O)(=O)c3ccccc3)ccc2c1` [uPa_14] was 8700 nM; that for `COc1cc(C2CC2c2ccc3c(c2)C(C(C)C)N(C)CC3)cc2ccc(C(=N)N)cc12` (stereo not drawn) [uPa_42] was 94 nM; that for `N=C(N)NC(=O)c1ccc(Cl)c(S(N)(=O)=O)c1` [uPa_45] was > 100000 nM.

Compound `CN1CCc2ccc(/C=C/c3ccc4cc(C(=N)N)ccc4c3)cc2C1C1CCCCC1` (stereo not drawn) [uPa_40] displayed an inhibitory constant (Ki) of 223 nM.

`CC(C)Oc1ccc2cc(C(=N)N)ccc2c1` [uPa_5] had a Ki of 7280 nM. The value for `CC(C)C1c2cc(C3CC3c3cc(/C=C/C4CC4)c4cc(C(=N)N)ccc4c3)ccc2CCN1C` (stereo not drawn) [uPa_43] was 9 nM. `N=C(N)c1ccc2cc(C#Cc3cccc(OC4CCCC4)c3)ccc2c1` [uPa_25] yielded a Ki of 665 nM. The value for `CC(C)C1=NCCc2ccc(NC(=O)c3cc(Br)c4cc(C(=N)N)ccc4c3)cc21` [uPa_26] was 16 nM; that for `CS(=O)(=O)Nc1cc(CCc2ccccc2)cc2ccc(C(=N)N)cc12` [uPa_37] was 1490 nM. The value for `Nc1ccc2nc(N)ccc2c1` [uPa_23] was > 104000 nM; that for `COC(=O)Nc1ccc2nc(C(=N)N)ccc2c1` [uPa_27] was > 50000 nM. Compound `COC(=O)Nc1cc(C(=O)Nc2ccccc2)cc2ccc(C(=N)N)cc12` [uPa_36] had a Ki of 18 nM.
